This is an account of results in patent US9051309B2, “3,5-disubstituted-1,3,4-oxadiazol-2(3H)-ones and compositions and methods for controlling nematode pests” (Monsanto Technology LLC, priority 2013, dated 2015).

Marks after values point to notes of the source that are not given here.

Experiment [1] concerns Meloidogyne incognita nematodes. As to the kind of experiment: Miniaturized greenhouse nematicidal efficacy assay on cucumber seedlings in sand vials (root gall rating). The note with it: 500 M. incognita eggs, harvest 10 to 12 days after inoculation, average of triplicate ratings.
Description: A miniaturized greenhouse assay was conducted to study the effects of several 3,5-disubstituted-1,3,4-oxadiazol-2(3H)-one compounds on Meloidogyne incognita nematodes.
Cucumber seeds were sprouted for 3 days in moist paper towels. Acceptable sprouts were 3 to 4 cm long, with several lateral roots just emerging.
Each test solution was evaluated in triplicate. Dry sand (10 mL) was added to each vial. Seedlings were planted by tilting the vial and laying the seedling in the correct orientation so that the cotyledons were just above the sand, and then tilting back to cover the radicles with sand. A sample of the test solution (3.3 mL) was then added to each vial, and the vials were placed in racks under fluorescent light banks. The vials were inoculated two days after planting by adding 500 vermiform M. incognita eggs to each vial in deionized or spring water (50 μL). The vials were then kept under the fluorescent lamps at ambient room temperature and watered as needed with deionized water (1 mL), usually twice during duration of test.
Harvest of the cucumber plants was performed 10 to 12 days after inoculation by washing sand off the roots. A root gall rating was assigned using the following Gall rating scale (Gall: % root mass galled): 0=0-5%; 1=6-20%; 2=21-50%; and 3=51-100%.
Comparative solutions comprising other commercially available nematicidal compounds were also evaluated as controls.
The subject of experiment [2] is root knot nematode (RKN). As to the kind of experiment: Seed treatment on cucumber for RKN control. The class given is in vivo. To be noted: 1000 root knot eggs five days after planting, galling rated 14 days after inoculation, versus untreated blank. How it is done:
The excess of 30% by weight of test compound was added for each treatment that would equal 130% of the desired rate to assure target seed loading. The test compound (the amount as described in Table 3A below) and surfactant (optional) were dissolved in 3 mL acetone. AGRIMER VA-6 inert polymer was added at a concentration of 15% of the total test compound weight. Seeds were placed in the drum of the batch lab treater. The drum was rotated. The solutions of test compositions as described above were pipette onto seeds. The drum continued to rotate until the seed were dry.
3 inch by 3 inch plastic pots were filled with a media consisting of 80% sand and 20% silt loam soil (v/v). Treated cucumber seeds were planted ½ inch below the soil surface. Pots were watered as needed. Five days after planting the cucumber plants had the first true leaf emerging and each pot was inoculated with 1000 vermiform root knot eggs. The cucumber plants were rated for root galling 14 days after inoculation. The gall ratings were scored on a scale of 0-100 where, 0=no galls and 100=completely galled. Percent control was determined by comparison to the blank (untreated).

For experiment [3], the system named is root knot nematode (RKN). As to the kind of experiment: RKN greenhouse soil assay on cucumber plants (7 day longevity test). The class given is in vivo. The note with it: inoculated 7 days after application, root galling rated 14 days after egg inoculation, galling reduction relative to control blank. How it is done:
(§1) First, a concentrate was prepared by dissolving 2 milligrams of the test compound in 2 mL of an acetone solvent. Test solutions were then prepared by combining an appropriate amount of the concentrate with an aqueous surfactant solution comprising TRITON X100 (0.05%).
Cucumber seeds were planted in a sandy soil mixture in two inch square plastic pots. When the cotyledons were fully opened and just as the first leaf began to emerge, usually 7 days after planting, a nematicidal test solution was applied to each pot. Five milliliters of the appropriate chemical solution was pipetted to the media surface, making sure to avoid contact with the base of the plant. Immediately following chemical application, using a mist nozzle, the pot surface was wetted sufficiently to saturate the pot, effectively watering the test solution into the soil.
Seven days following application of the test solution, each pot was inoculated with root knot nematode (RKN) eggs. A nematode egg slurry was prepared by adding RKN nematode eggs to distilled water to create a concentration of 1000 vermiform eggs […] of water. […]
The cucumber plants were rated for root galling 14 days after the egg inoculation. […] A commercially available nematicide, fenamiphos, was also evaluated for comparison.

The test system of experiment [4] is soybean cyst nematode (SCN). Kind of experiment: SCN greenhouse sand assay on soybean plants. The class given is in vivo. To be noted: SCN eggs about four hours after application, rated 28 days after egg inoculation. How it is done:
as §1
A similar experiment was conducted with regard to control of soybean cyst nematode (SCN) on soybean plants. Soybean seeds were planted in a media consisting of 80% sand and 20% silt loam soil (v/v) in two inch square plastic pots. […] Approximately four hours after application of the nematicidal test solution, the nematode soybean cyst nematode (SCN) eggs were applied using the procedure described above. The soybean plants were rated for root galling 28 days after the egg inoculation.

[5] abbreviates: 40 ppm, scale 0=0-5%, 1=6-20%, 2=21-50%, 3=51-100% root mass galled.

As to `O=c1oc(-c2ccc(Cl)cc2)nn1-c1cccs1` [Formula IIa-iv, 5-(4-chlorophenyl)-3-(thiophen-2-yl)-1,3,4-oxadiazol-2(3H)-one], the gall ratings in experiment [1] (1 ppm, scale 0-3) is 3.00; in experiment [1] (8 ppm, scale 0-3), 1.67; in experiment [1] (setting [5]) it was 1.00.
For the molecule `O=c1oc(-c2cccs2)nn1-c1ccccc1` [Formula Ia-i, 3-phenyl-5-(thiophen-2-yl)-1,3,4-oxadiazol-2(3H)-one], the gall ratings is listed as 2.00 in experiment [1] (8 ppm, scale 0-3) and 1.00 in experiment [1] (setting [5]).
For the molecule `O=c1oc(-c2ccco2)nn1-c1ccccc1` [Formula Ia-ii, 5-(furan-2-yl)-3-phenyl-1,3,4-oxadiazol-2(3H)-one], the gall ratings was 3.00 in experiment [1] (1 ppm, scale 0-3); 1.33 in experiment [1] (8 ppm, scale 0-3); 0.00 in experiment [1] (setting [5]).
With `O=c1oc(-c2cccs2)nn1-c1ccc(Cl)cc1` [Formula Ia-iii, 3-(4-chlorophenyl)-5-(thiophen-2-yl)-1,3,4-oxadiazol-2(3H)-one], the “Percent Control” value in experiment [2] (seed treatment 0.1 mg a.i./seed) is 12^b Percent; in experiment [2] (seed treatment 0.25 mg a.i./seed), 25^b Percent; in experiment [2] (seed treatment 0.5 mg a.i./seed) it was 62^a Percent; in experiment [3] (application rate 0.1 kg/ha) it was 63^a Percent; in experiment [3] (application rate 0.25 kg/ha), 70^a Percent; in experiment [4] (application rate 0.1 kg/ha) it was 29^a Percent. Moreover, the “Percent Control” value in experiment [4] (application rate 0.25 kg/ha) is on record as 56^a Percent. Besides, the gall ratings in experiment [1] (1 ppm, scale 0-3) was found to be 0.00; in experiment [1] (8 ppm, scale 0-3), 0.33; in experiment [1] (setting [5]), 0.00.
`O=c1oc(-c2cccs2)nn1-c1ccc(F)cc1` [Formula Ia-iv, 3-(4-fluorophenyl)-5-(thiophen-2-yl)-1,3,4-oxadiazol-2(3H)-one]: the gall ratings in experiment [1] (1 ppm, scale 0-3) came to 3.00; in experiment [1] (8 ppm, scale 0-3), 2.00; in experiment [1] (setting [5]) it was 1.33.
Take `O=c1oc(-c2ccco2)nn1-c1ccc(Cl)cc1` [Formula Ia-v, 3-(4-chlorophenyl)-5-(furan-2-yl)-1,3,4-oxadiazol-2(3H)-one]: the gall ratings in experiment [1] (1 ppm, scale 0-3) is 1.67; in experiment [1] (8 ppm, scale 0-3), 1.00; in experiment [1] (setting [5]), 0.33.
Consider `O=c1oc(-n2cccc2)nn1-c1ccccc1` [Formula Ic-i, 3-phenyl-5-(1H-pyrrol-1-yl)-1,3,4-oxadiazol-2(3H)-one], for which the gall ratings worked out at 0.33 in experiment [1] (8 ppm, scale 0-3) and 0.00 in experiment [1] (setting [5]).
With `O=c1oc(-n2cccc2)nn1-c1ccc(Cl)cc1` [Formula Ic-ii, 3-(4-chlorophenyl)-5-(1H-pyrrol-1-yl)-1,3,4-oxadiazol-2(3H)-one], the gall ratings in experiment [1] (1 ppm, scale 0-3) is reported as 2.33; in experiment [1] (8 ppm, scale 0-3), 1.67; in experiment [1] (setting [5]), 1.00.
`CNC(=O)O/N=C(\SC)C(=O)N(C)C` [Oxamyl, reference compound]: the figures for the “Percent Control” value in experiment [4] (application rate 0.1 kg/ha) and in experiment [4] (application rate 0.25 kg/ha) were 59^a Percent and 79^a Percent, respectively.
Abamectin [reference compound]: the “Percent Control” value in experiment [2] (seed treatment 0.2 mg a.i./seed) is 37^a Percent. Besides, the gall ratings in experiment [1] (1 ppm, scale 0-3) is recorded as 1.67^b.
